# Where a name gives a salt, the structure may show the parent alone. Read-outs that look alike come from different tables or passages of the source.
# How the values were obtained:
# α1A adrenoceptor = molecular target: T1, α1A adrenoceptor (Rattus norvegicus, UniProt P43140); assay: Receptor binding assay, displacement of [3H]prazosin, rat submaxillary membranes; conditions: for Selectivity α1B/α1A: ratio of Ki α1B (rat liver) / α1A (rat submaxillary)
# T1 construct: from tissue; host or cells: rat submaxillary gland membranes
# T1 sequence (P43140 1-466): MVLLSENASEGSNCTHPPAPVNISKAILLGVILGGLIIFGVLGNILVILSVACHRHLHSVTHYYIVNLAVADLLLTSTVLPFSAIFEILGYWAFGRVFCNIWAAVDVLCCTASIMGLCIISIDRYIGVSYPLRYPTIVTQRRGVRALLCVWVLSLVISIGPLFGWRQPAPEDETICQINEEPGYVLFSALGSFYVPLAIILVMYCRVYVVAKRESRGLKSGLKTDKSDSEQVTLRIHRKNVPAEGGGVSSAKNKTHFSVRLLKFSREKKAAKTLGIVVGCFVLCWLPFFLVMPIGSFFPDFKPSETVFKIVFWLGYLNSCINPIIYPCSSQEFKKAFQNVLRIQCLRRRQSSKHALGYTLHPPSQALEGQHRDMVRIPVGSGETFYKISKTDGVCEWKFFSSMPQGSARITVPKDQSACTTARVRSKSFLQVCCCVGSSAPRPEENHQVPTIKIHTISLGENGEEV
# Description: Receptor binding assays were performed using native α-adrenoceptors.
# (§1) Submaxillary glands were isolated immediately after sacrifice. The liver was perfused with buffer (Tris HCl 50 mM, NaCl 100 mM, 10 mM EDTA pH 7.4). The tissues were homogenised in 10 volumes of buffer (Tris HCl 50 mM, NaCl 100 mM, EDTA 10 mM, pH 7.4). The homogenate was filtered through two layers of wet gauze and filtrate was centrifuged at 500 g for 10 min. The supernatant was subsequently centrifuged at 40,000 g for 45 min. The pellet thus obtained was resuspended in the same volume of assay buffer (Tris HCl 50 mM, EDTA 5 mM, pH 7.4) and were stored at −70° C. until the time of assay.
# (§2) The membrane homogenates (150-250 μg protein) were incubated in 250 μl of assay buffer (Tris HCl 50 mM, EDTA 5 mM, pH 7.4) at 24-25° C. for 1 h. Non-specific binding was determined in the presence of 300 nM prazosin. The incubation was terminated by vacuum filtration over GF/B fibre filters. The filters were then washed with ice cold 50 mM Tris HCl buffer (pH 7.4). The filtermats were dried and bound radioactivity retained on filters was counted.The IC50 & Kd were estimated by using the non-linear curve fitting program using G Pad Prism software.
# α1B adrenoceptor = molecular target: T2, α1B adrenoceptor (Rattus norvegicus, UniProt P15823); assay: Receptor binding assay, displacement of [3H]prazosin, rat liver membranes
# T2 construct: from tissue; host or cells: rat liver membranes
# T2 sequence (P15823 1-515): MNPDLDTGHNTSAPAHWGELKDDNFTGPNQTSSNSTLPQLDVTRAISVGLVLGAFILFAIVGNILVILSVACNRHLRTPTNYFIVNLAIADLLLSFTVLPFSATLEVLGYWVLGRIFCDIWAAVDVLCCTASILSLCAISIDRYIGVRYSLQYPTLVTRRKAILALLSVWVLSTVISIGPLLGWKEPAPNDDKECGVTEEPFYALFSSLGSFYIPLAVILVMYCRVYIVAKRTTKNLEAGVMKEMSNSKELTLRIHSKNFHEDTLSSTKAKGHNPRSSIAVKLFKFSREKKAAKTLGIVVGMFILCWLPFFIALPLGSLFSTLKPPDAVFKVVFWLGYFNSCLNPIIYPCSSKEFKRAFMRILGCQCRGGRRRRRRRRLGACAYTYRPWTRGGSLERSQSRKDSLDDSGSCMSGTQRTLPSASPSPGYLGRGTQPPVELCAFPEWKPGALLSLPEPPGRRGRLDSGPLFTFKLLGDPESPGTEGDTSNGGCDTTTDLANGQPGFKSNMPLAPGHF
# Description: Receptor binding assays were performed using native α-adrenoceptors. The affinity of different compounds for α1A and α1B adrenoceptor subtypes was evaluated by studying their ability to displace specific [^3H]prazosin binding from the membranes of rat submaxillary and liver respectively (Michel et al, Br J Pharmacol, 98, 883-889 (1989)). The binding assays were performed according to U'Prichard et al. (Eur J Pharmacol, 50:87-89 (1978)) with minor modifications.
# as §1
# as §2, with “software. The value of inhibition constant Ki was calculated from competitive binding studies by using Cheng & Prusoff equation (Cheng & Prusoff, Biochem Pharmacol, 1973,22: 3099-3108), Ki=IC50/(1+L/Kd) where L is the concentration of [^3H]prazosin used in the particular experiment (Table I).” for “software.”
# [1] = [3H]prazosin displacement, rat submaxillary membranes, read-out: α1A (Rat submaxillary) Ki
# [2] = [3H]prazosin displacement, rat liver membranes, read-out: α1B (Rat liver) Ki
melting point,Ki (α1A adrenoceptor; [1]),Selectivity α1B/α1A (α1A adrenoceptor),Ki (α1B adrenoceptor; [2]),SMILES,Ki (α1A adrenoceptor),Ki (α1B adrenoceptor)
186 to 187 °C,–,–,–,"Cc1ccccc1N1CCN(CCCN2C(=O)[C@H]3CC=CC[C@H]3C2=O)CC1 (as salt: hydrochloride) [Compound 03, 2-[3-{4-(2-Methylphenyl)piperazin-1-yl}propyl]-3a,4,7,7a-tetrahydro-1H-isoindole-1,3(2H)-dione hydrochlolide]",–,–
235 to 236 °C,–,–,–,"O=C1[C@H]2CC=CC[C@H]2C(=O)N1CCCN1CCN(C(c2ccc(F)cc2)c2ccc(F)cc2)CC1 (as salt: hydrochloride) [Compound 19, 2-[3-{4-(Bis-4-fluorophenyl)methylpiperazin-1-yl}propyl]-3a,4,7,7a-tetrahydro-1H-isoindole-1,3(2H)-dione hydrochloride]",–,–
221 to 223 °C,83 nM,4.8,398 nM,"Cl.O=C1C2CC=CCC2C(=O)N1CCCN1CCN(c2cccc(Cl)c2)CC1 (stereo not drawn) [Compound 02, 2-[3-{4-(3-Chlorophenyl)piperazin-1-yl}propyl]-3a,4,7,7a-tetrahydro-1H-isoindole-1,3(2H)-dione hydrochloride]",–,–
–,32.5 nM,5,168 nM,"Cc1ccccc1N1CCN(CCCN2C(=O)[C@H]3CC=CC[C@H]3C2=O)CC1 [Compound 03, 2-[3-{4-(2-Methylphenyl)piperazin-1-yl}propyl]-3a,4,7,7a-tetrahydro-1H-isoindole-1,3(2H)-dione hydrochlolide]",–,–
228 to 230 °C,80 nM,4.5,363 nM,"Cl.O=C1C2CC=CCC2C(=O)N1CCCN1CCN(c2ccc(F)cc2)CC1 (stereo not drawn) [Compound 04, 2-[3-{4-(4-Fluorophenyl)piperazin-1-yl}propyl]-3a,4,7,7a-tetrahydro-1H-isoindole-1,3(2H)-dione hydrochloride]",–,–
203 to 204 °C,36 nM,13,469 nM,"Cl.O=C1C2CC=CCC2C(=O)N1CCCN1CCN(c2ccccc2F)CC1 (stereo not drawn) [Compound 06, 2-[3-{4-(2-Fluorophenyl)piperazin-1-yl}propyl]-3a,4,7,7a-tetrahydro-1H-isoindole-1,3(2H)-dione hydrochloride]",–,–
194 to 196 °C,183 nM,2.7,> 500 nM,"Cc1ccc(N2CCN(CCCN3C(=O)C4CC=CCC4C3=O)CC2)cc1C.Cl (stereo not drawn) [Compound 07, 2-[3-{4-(3,4-Dimethylphenyl)piperazin-1-yl}propyl]-3a,4,7,7a-tetrahydro-1H-isoindole-1,3(2H)-dione hydrochloride]",–,–
218.2 to 219 °C,62 nM,2.7,165 nM,"Cl.O=C1C2CC=CCC2C(=O)N1CCCN1CCN(c2ccc(F)cc2F)CC1 (stereo not drawn) [Compound 10, 2-[3-{4-(2,4-Difluorophenyl)piperazin-1-yl}propyl]-3a,4,7,7a-tetrahydro-1H-isoindole-1,3(2H)-dione hydrochloride]",–,–
231 to 232 °C,8.66 nM,5.9,51.3 nM,"Cc1ccc(Cl)cc1N1CCN(CCCN2C(=O)C3CC=CCC3C2=O)CC1.Cl (stereo not drawn) [Compound 12, 2-[3-{4-(2-Methyl-5-chlorophenyl)piperazin-1-yl}propyl]-3a,4,7,7a-tetrahydro-1H-isoindole-1,3(2H)-dione hydrochloride]",–,–
275 to 278 °C,> 500 nM,1,> 500 nM,"Cl.O=C1C2CC=CCC2C(=O)N1CCCN1CCN(Cc2ccccc2)CC1 (stereo not drawn) [Compound 14, 2-[3-{4-(Benzyl)piperazin-1-yl}propyl]-3a,4,7,7a-tetrahydro-1H-isoindole-1,3(2H)-dione hydrochloride]",–,–
263 to 265 °C,> 500 nM,1,> 500 nM,"Cl.O=C1C2CC=CCC2C(=O)N1CCCN1CCN(CC=Cc2ccccc2)CC1 (stereo not drawn) [Compound 15, 2-[3-{4-(Cinnamyl)piperazin-1-yl}propyl]-3a,4,7,7a-tetrahydro-1H-isoindole-1,3(2H)-dione hydrochloride]",–,–
259.5 to 261 °C,> 500 nM,1,> 500 nM,"Cl.O=C1C2CC=CCC2C(=O)N1CCCN1CCN(c2ccc([N+](=O)[O-])cc2)CC1 (stereo not drawn) [Compound 16, 2-[3-{4-(4-Nitrophenyl)piperazin-1-yl}propyl]-3a,4,7,7a-tetrahydro-1H-isoindole-1,3(2H)-dione hydrochloride]",–,–
248 to 249 °C,48 nM,0.78,37 nM,"Cc1ccc(N2CCN(CCCN3C(=O)C4CC=CCC4C3=O)CC2)cc1Cl.Cl (stereo not drawn) [Compound 17, 2-[3-{4-(3-Chloro-4-methylphenyl)piperazin-1-yl}propyl]-3a,4,7,7a-tetrahydro-1H-isoindole-1,3(2H)-dione hydrochloride]",–,–
232 to 233 °C,10 nM,27,271 nM,"COc1cc(F)ccc1N1CCN(CCCN2C(=O)C3CC=CCC3C2=O)CC1.Cl (stereo not drawn) [Compound 18, 2-[3-{4-(4-Fluoro-2-methoxyphenyl)piperazin-1-yl}propyl]-3a,4,7,7a-tetrahydro-1H-isoindole-1,3(2H)-dione hydrochloride]",–,–
–,5.26 nM,15,81 nM,"O=C1[C@H]2CC=CC[C@H]2C(=O)N1CCCN1CCN(C(c2ccc(F)cc2)c2ccc(F)cc2)CC1 [Compound 19, 2-[3-{4-(Bis-4-fluorophenyl)methylpiperazin-1-yl}propyl]-3a,4,7,7a-tetrahydro-1H-isoindole-1,3(2H)-dione hydrochloride]",–,–
210 to 211 °C,46.8 nM,11,> 500 nM,"Cl.O=C1C2CC=CCC2C(=O)N1CCCN1CCN(c2ccc(Cl)cc2Cl)CC1 (stereo not drawn) [Compound 20, 2-[3-{4-(2,4-Dichlorophenyl)piperazin-1-yl}propyl]-3a,4,7,7a-tetrahydro-1H-isoindole-1,3(2H)-dione hydrochloride]",–,–

SMILES,melting point,Ki (α1A adrenoceptor; [1]),Selectivity α1B/α1A (α1A adrenoceptor),Ki (α1B adrenoceptor; [2]),Ki (α1A adrenoceptor),Ki (α1B adrenoceptor)
"Cl.O=C1C2CC=CCC2C(=O)N1CCCN1CCN(c2cccc(C(F)(F)F)c2)CC1 (stereo not drawn) [Compound 05, 2-[3-{4-(3-Trifluoromethylphenyl)piperazin-1-yl}propyl]-3a,4,7,7a-tetrahydro-1H-isoindole-1,3(2H)-dione hydrochloride]",215 to 217 °C,–,2,–,259 nM,> 500 nM

# Reference: patent US6914064B2, “1,4-Disubstituted piperazine derivatives useful as uro-selective α1-adrenoceptor blockers” (Ranbaxy Laboratories Limited, priority 2000, dated 2005)
